“Also recorded” adds a separate entry of the source.
Experiments:
[1] = test system: Colo320 DM ecDNA+ and Colo320 HSR ecDNA− cells; assay: Sensitivity of Colo320 DM and Colo320 HSR to CHK1 inhibitors, seven days (FIG. 13); assay type: cell-based; conditions: CHK2 or ATM inhibition
Method: The sensitivity of an ecDNA+ cell line (Colo320 DM) compared with an ecDNA− cell line (Colo320 HSR) to four structurally distinct CHK1 inhibitors was determined.

HeLa cells [2] = assay: HeLa cell confluence by high-content microscopy over three weeks, with or without 100 nM methotrexate; assay type: cell-based; conditions: for cell growth (cell confluence), agent alone / development of methotrexate resistance: three weeks; for cell growth (cell confluence), agent alone: 10 nM GDC-0575, 100 nM methotrexate, 300 nM-10 μM AZD6738; for development of methotrexate resistance: in combination with 100 nM methotrexate
Method: Cell confluence was measured via high-content microscopy over the time course.
HeLa cells were treated with a WEE1 inhibitor, 0.01-0.3 μM adavosertib alone, with 1 nM-100 nM PD0166285, with 100 nM methotrexate alone, or with a combination of 0.01-0.3 μM adavosertib and 100 nM methotrexate or a combination of 1 nM-100 nM PD0166285 and 100 nM methotrexate over the course of three weeks. Cell confluence was measured via high-content microscopy over the time course.
HeLa cells were treated with a PARG inhibitor, 3-100 μM PD00017273 with (FIG. 35 top panel) or without (FIG. 35 bottom panel) 100 nM methotrexate over the course of 3 weeks. Cell confluence was measured via high-content microscopy over the time course.
Cell confluence was measured via high-content microscopy over the time course. […] However.

[3] = test system: Colo320 DM (ecDNA+) and Colo320 HSR (ecDNA−) cells; assay: MTS cell proliferation assay, 7 days, Colo320 ecDNA+ vs ecDNA−; assay type: cell-based
Method: (§1) Sensitivity of an ecDNA+ (Colo320 ecDNA+) and an ecDNA− (Colo320 ecDNA−) cell line models to WEE1 inhibition was determined by treating each with increasing concentrations of either adavosertib or PD0166285 over a 7 day period. Cell proliferation was determined using a MTS assay (FIG. 27, top panels), while viability was determined using CellTiter-glo assay (FIG. 27 bottom panels).
(§2) Cell proliferation was determined using a MTS assay (FIG. 36, top panels), while viability was determined using CellTiter-glo assay (FIG. 36, bottom panels).

[4] = test system: Colo320 ecDNA+ and Colo320 ecDNA− cells; assay: CellTiter-glo viability assay, 7 days, Colo320 ecDNA+ vs ecDNA−; assay type: cell-based
Method: as §1, §2

parental CT26 WT E3 line = assay: Culture of parental line with adagrasib; assay type: cell-based
[5] = test system: CT26WT E3 G12C KRAS mutant tumor cells; assay: Treatment of CT26WT E3 G12C KRAS mutant tumors in mice, tumor growth (Examples 3 and 4); assay type: in vivo; conditions: adagrasib 50 mg/kg orally once per day
Description: (§3) Mice were implanted with CT26WT E3 G12C KRAS mutant tumor cells.
as §3

[6] = test system: panel of ecDNA+ cell lines; assay: Two-week soft-agar 3D colony formation assay, adavosertib (FIG. 31); assay type: cell-based; conditions: five-point dose range, two weeks
Method: FIG. 31 illustrates sensitivity of ecDNA+ cells to inhibition of WEE1 using adavosertib in a 3-dimensional colony formation assay conducted in soft-agar. A panel of ecDNA+ cell lines were interrogated in a two-week soft agar drug sensitivity assay. All lines were treated with a five-point dose range of adavosertib for two weeks and stained with crystal violet to quantify individual colony counts.

[7] = test system: KRASi resistant tumor cells cultured ex vivo; assay: KRASi resistant tumor cells implanted into NOD-SCID mice, tumor growth; assay type: in vivo; conditions: adagrasib 50 mg/kg orally once per day
Description: KRASi resistant tumor cells cultured ex vivo from Example 5 were implanted into NOD-SCID mice. […] Mice were implanted with the KRAS-resistant tumor cells as above.

HeLa cells [8] = assay: HeLa colony formation assay, resistance formation to methotrexate (FIG. 32); assay type: cell-based; conditions: 10000 cells plated with methotrexate for 21 days, IC50, 1/3 IC50, or 1/9 IC50
[9] = test system: Colo320 ecDNA+ (COLO320 DM) and Colo320 ecDNA− (COLO320 HSR) cells; assay: Sensitivity of Colo320 ecDNA+ and ecDNA− cells to RNR inhibitors (FIG. 12); assay type: cell-based; conditions: for induction of replication stress marker, phosphorylation at serine positions 317 and 345 of CHK1: Colo320 DM and HSR cells
SNU16 cells = assay: Long-term cell growth / resistance development in SNU16 cells; assay type: cell-based, human; conditions: for cell growth / development of primary resistance: FIG. 25, 12 weeks, 1 uM infigratinib, 1 uM erlotinib, 10 nM gemcitabine; for cell growth / resistance formation: 9 weeks
Method: Each treatment arm was terminated once the cell number reached 5×10^6.
SNU16 cells were subdivided into five groups and each group of 1×10^6 cells was subjected to treatment with 1 μM infigratinib, 1 μM erlotinib, 1 μM infigratinib and 1 μM erlotinib, 0.1 μM adavosertib and cell growth was recorded over 9 weeks.
SNU16 cells were subdivided into five groups and each group of 1×10^6 cells was subjected to treatment with infigratinib, erlotinib, PD00017273, infigratinib and erlotinib, or infigratinib and PD00017273 and cell growth was recorded over 9 weeks.
SNU16 (CRL-5974) cell line was purchased from ATCC. SNU16 cells were grown in RPMI 1640 medium (Fisher Scientific) with 10% FBS and 100 U/ml penicillin/streptomycin (Fisher Scientific). For the resistance experiments, SNU16 cells were plated at 2 million per T75 flask and were treated with either 1 μM infigratinib (Selleck Chemicals), 1 μM erlotinib (Selleck Chemicals), 10 nM gemcitabine (Sigma Aldrich), or a combination. The media was changed and fresh drug was added at least once per week. The cells were counted over the span of several weeks to measure cell growth.

[10] = test system: infigratinib-resistant SNU16 cells; assay: Secondary resistance, cell growth of infigratinib-resistant SNU16 cells over 5 weeks; assay type: cell-based, human; conditions: FIG. 26, 1 uM infigratinib, 1 uM erlotinib, 10 nM gemcitabine
Method: The infigratinib-resistant SNU16 cells (generated as shown in FIG. 25) were subdivided into six groups and each group of 1×10^6 cells was subjected to treatment with 1 uM infigratinib, 1 uM erlotinib, 10 nM gemcitabine, or 1 uM erlotinib+10 nM gemcitabine and the cell growth was recorded over 5 weeks. Each treatment arm was terminated once the cell number reached 5×10^6.

KRAS amplified ecDNA = assay: KRAS ecDNA by FISH in metaphase spreads from ex vivo cultures of treated tumors; parameters: species or system murine
Method: ecDNA were measured in metaphase spreads prepared from ex vivo cultures established from tumors taken from the mice on day of sacrifice. ecDNA counts were determined using FISH for murine KRAS.
Metaphase spreads were prepared from metaphase arrested and fixed ex vivo cultures established from tumors taken from mice in treatment groups and ecDNA was visualized by FISH for murine KRAS.

[11] = test system: ecDNA+ (Colo320 DM) and ecDNA− (Colo320 HSR) cells; assay: DNA fiber analysis, replication fork speed; assay type: cell-based; conditions: 16 hr treatment
Method: FIGS. 42A-42B show intrinsic replication fork dysfunction in ecDNA(+) cancer cells is further compromised by RNR inhibition relative to […]. […] The two cell models were then pulse-labeled with the thymidine analogues chlorodeoxyuridine (CldU) and iododeoxyuridine (IdU) for 30 min each (FIG. 42A). Cells were lysed, DNA fibers spread out and immunostained using specific antibodies against CldU and IdU. […] A difference of -0.13 kb/min in replication fork speed between ecDNA+ and […] treated with RNRi was observed. Statistical significance was calculated using nonparametric Kolmogorov-Smirnov test. FIGS. 43A-43B show intrinsic replication fork dysfunction in ecDNA+ cancer cells is further compromised by CHK1 inhibition relative to […]. […] The two cell models were then pulse-labeled with the thymidine analogues chlorodeoxyuridine (CldU) and iododeoxyuridine (IdU) for 30 min each (FIG. 43A). Cells were lysed, DNA fibers spread out and immunostained using specific antibodies against CldU and IdU.

[12] = test system: ecDNA+ cell lines (SNU16, Colo320 DM, H716, and H2170) and ecDNA− cell lines (DLD1, Colo320 HSR, Lovo, and SW48); assay: Two-week soft-agar 3D colony formation assay, gemcitabine (FIG. 5); assay type: cell-based; conditions: five-point dose range, two weeks, colony counts
Method: A panel of ecDNA+ and ecDNA− cell lines were interrogated in a two-week soft-agar drug sensitivity assay. All lines were treated with a five-point dose range of gemcitabine for two weeks and stained with crystal violet (FIG. 5, top panel) to quantify individual colony counts by ImageJ analysis (plotted in FIG. 5, bottom panel).

`CN(C)CCCOc1ccc(-c2ccc3ncc4c(c3c2)n(C2CCOCC2)c(=O)n4C)cn1` [AZD0156] was tested, and the “differential sensitivity between the two lines” value [1] was “neither inhibiting CHK2 with CCT241533 nor inhibiting DDR target, ATM, with AZD0156 revealed any differential sensitivity”.
In the case of `C[C@@H]1COCCN1c1cc(C2([S@](C)(=N)=O)CC2)nc(-c2cc[nH]c3nccc2-3)n1` [AZD6738], the “cell growth (cell confluence), agent alone” value (HeLa cells [2]) is reported as “did not affect HeLa cell growth”, the “synthetic lethality with methotrexate” value (HeLa cells [2]; with 100 nM methotrexate, 3 weeks) is reported as “synthetic lethality” and the “sensitivity of Colo320 ecDNA+ compared with ecDNA− cells, proliferation changes” value (“sensitivity … proliferation changes” for short) [3] is reported as “enhanced sensitivity”. For the same compound, the “sensitivity of Colo320 ecDNA+ compared with ecDNA− cells, viability changes” value (“sensitivity … viability changes” below) [4] was “enhanced sensitivity”.
For `COc1cc2nc(-c3cc(F)ccc3O)nc(N[C@@H]3CNC[C@H]3C(C)(C)O)c2cc1OC` [CCT241533], the “differential sensitivity between the two lines” value [1] was “neither inhibiting CHK2 with CCT241533 nor inhibiting DDR target, ATM, with AZD0156 revealed any differential sensitivity”.
In the case of `CCN(CC)CCOc1ccc(Nc2ncc3cc(-c4c(Cl)cccc4Cl)c(=O)n(C)c3n2)cc1` [PD0166285], the “development of methotrexate resistance” value (HeLa cells [2]) is reported as “abrogation of methotrexate resistance”, the “sensitivity … proliferation changes” value [3] is reported as “enhanced sensitivity” and the “sensitivity … viability changes” value [4] is reported as “enhanced sensitivity”.
In the case of `C=C(F)C(=O)N1CCN(c2nc(OC[C@@H]3CCCN3C)nc3c2CCN(c2cccc4cccc(Cl)c24)C3)C[C@@H]1CC#N` [adagrasib], the “sensitivity to the drug in culture” value (parental CT26 WT E3 line) is reported as “remained sensitive to the drug”, the “day by which tumors began to exhibit resistance and tumor growth resumed” value ([5]; Example 3) is reported as no more than 14 days and the “delay in tumor growth before tumors developed resistance” value ([5]; Example 4) is reported as “about 2 weeks”.
`C=CCn1c(=O)c2cnc(Nc3ccc(N4CCN(C)CC4)cc3)nc2n1-c1cccc(C(C)(C)O)n1` [adavosertib] was tested, and the “sensitivity, colony counts” value [6] was “demonstrated sensitivity”, the tumor growth ([7]; from about 180 mm^3, adavosertib 60 mg/kg orally once per day, PD0166285 0.3 mg/kg ip once per day) was “inhibited tumor growth” and the “development of methotrexate resistance” value (HeLa cells [2]) was “prevented development of methotrexate resistance”. The “resistance formation to methotrexate” value (HeLa cells [8]) was “abrogation of resistance formation to methotrexate”, the “sensitivity … proliferation changes” value [3] was “enhanced sensitivity” and the “sensitivity … viability changes” value [4] was “enhanced sensitivity”.
For `Cc1ccc(F)c([C@@H](C)[C@H](NS(=O)(=O)c2ccc(Cl)cc2C(N)=O)c2n[nH]c(=O)o2)c1C` [compound 1, 5-chloro-2-(n-((1S,2R)-2-(6-fluoro-2,3-dimethylphenyl)-1-(5-oxo-4,5-dihydro-1,3,4-oxadiazol-2-yl)propyl)sulfamoyl)benzamide], the “induction of replication stress marker, phosphorylation at serine positions 317 and 345 of CHK1” value (shortened to “induction of replication stress marker”) [9] was “induced the replication stress marker”.
For `C#Cc1cccc(Nc2ncnc3cc(OCCOC)c(OCCOC)cc23)c1` [erlotinib], the “cell growth / development of primary resistance” value (SNU16 cells) was “no effect on cell growth on its own”, the “cell growth / resistance formation” value (SNU16 cells; FIG. 30, 1 μM infigratinib, 1 μM erlotinib, 0.1 μM adavosertib) was “no effect on cell growth on its own” and the “cell growth / resistance formation” value (SNU16 cells; FIG. 34) was “little to no effect on cell growth”. The “cell growth / development of secondary resistance” value [10] was “delayed cell growth for the first two weeks, but the cells continued to grow quickly after that; also recorded: initially sensitive to EGFR inhibitor erlotinib but develop secondary resistance within three weeks”.
In the case of `Nc1ccn([C@@H]2O[C@H](CO)[C@@H](O)C2(F)F)c(=O)n1` [gemcitabine], the “cell growth / development of primary resistance” value (SNU16 cells) is reported as “delayed cell growth for the first two weeks, but the cells continued to grow quickly after that”, the tumor growth ([7]; from 290 mm^3, gemcitabine 10 mg/kg ip every other day) is reported as “inhibited tumor growth” and the “cell growth / development of secondary resistance” value [10] is reported as “delayed cell growth for the first two weeks, but the cells continued to grow quickly after that”. The “induction of replication stress marker” value [9] was “induced the replication stress marker”, the “KRAS ecDNA level” value (KRAS amplified ecDNA; Example 3, tumors at day of sacrifice (D21 or D16)) was “no KRAS amplified ecDNA was seen” and the “ecDNA copy number per metaphase spread where ecDNA present” value (KRAS amplified ecDNA; Example 4) was 1-3 per metaphase spread. For the same compound, the “metaphase spreads with little to no ecDNA” value (KRAS amplified ecDNA; Example 4, treatment group 3) was 78/95, the “difference in replication fork speed between treated ecDNA+ and ecDNA− cells” value [11] was −0.13 kb/min and the tumor growth ([5]; Example 3, from average volume 350 mm^3, gemcitabine 10 mg/kg ip every other day or 120 mg/kg ip once per week) was “only KRASi (adagrasib) resulted in a significant delay in tumor growth”. The tumor growth ([5]; Example 4, gemcitabine 10 or 20 mg/kg ip every other day) was “substantial tumor growth” and the “fold enhanced sensitivity of ecDNA+ cell lines compared with ecDNA− cell lines” value [12] was 5-10 fold.
With `NC(=O)NO` [hydroxyurea] the “induction of replication stress marker” value [9] was “induced the replication stress marker” and the ecDNA copy number ([9]; ecDNA+ (Colo320 DM) cells, vs vehicle treated) was “markedly reduced”.
`CN(Cc1cnc2nc(N)nc(N)c2n1)c1ccc(C(=O)N[C@@H](CCC(=O)O)C(=O)O)cc1` [methotrexate] was tested, and the “cell growth (cell confluence), agent alone” value (HeLa cells [2]) was “initially resulted in little to no cell growth, but after two weeks in culture, the cells began to develop resistance and cell growth resumed”.
`COc1cccc(OCCCN)c1-c1cc(Nc2cnc(C#N)cn2)n[nH]1` [prexasertib] was tested, and the “difference in replication fork speed between treated ecDNA+ and ecDNA− cells” value [11] was −0.1 kb/min.
